This is an account of results in patent publication US20250388592A1 (REMYND N.V., priority 2022, published 2025).

One may read the EC50 as the midpoint of the concentration-response curve. Read a low EC50 as greater potency.

The test system of the test is M17_3TAU(P301L) cells. As to the kind of experiment: TAU-induced cytotoxicity (LDH) in the neuroblastoma tauopathy model. The note with it: Homo sapiens, 168 h, inhibition of TAU-induced toxicity, 7 days retinoic acid differentiation, LDH readout. Type of test: cell-based. An excerpt:
A TAU expression plasmid was constructed by sub-cloning the cDNA encoding for human TAU-P301L protein, wherein proline at position 301 is substituted by a leucine residue, into mammalian expression vector pcDNA3.1 resulting in the plasmid pcDNA3.1-TAUP301L. Plasmids pcDNA3.1 and pcDNA3.1-TAU P301L were transfected into human neuroblastoma cells (BE-M17; ATCC No. CRL-2267™) using lipofectamine reagent and subsequently, independent clonal cell lines with the plasmids stably integrated into the genome were selected by antibiotic resistance selection (Geneticin (G418)), resulting in cell lines M17.pcDNA3 and M17_3TAUP301L. Expression of the TAUP301 L gene in the M17_3TAUP301 L cells was confirmed by Western blot analysis.
Differentiation of the cells with RA leads to phosphorylation and subsequent aggregation of TAU, inducing a tauopathy in these cells. Cytotoxicity of cells was measured by quantification of lactate dehydrogenase (LDH) levels. In dead cells LDH is leaked out of the cells into the medium due to a loss of plasma-membrane integrity.
Briefly, 3 days preceding the experiment pre-cultures of M17.pcDNA3 and M17_3TAU(P301L) cells were prepared, starting from a stock culture, at a density of 50.000-100.000 cells/cm2 in detection medium (Optimem Reduced Serum without phenol red (Gibco, Cat. 31985-047) supplemented with 1% fetal calf serum (FCS), 1 mM sodium pyruvate, 1×non-essential amino acids (NEAA), 500 μg/ml G418 and 0.5×antibiotic/antimycotic (ABAM)). At the day of the experiment these precultures were diluted to ˜[…] in detection medium without FCS and 60 μL of this suspension is dispensed per well into a 96-well microtiter plate. After 3 hours of incubation at 37° C./5% C02 an equal volume of detection medium containing 2.5 μM RA was added and subsequently incubated for 7 days at 37° C./5% CO2. After 7 days, LDH activity was determined using the Promega Cytotox 96 Non-Radioactive cytotoxicity assay (Cat. G1780), according the manufacturer's instructions. Cytotoxicity is measured as the ratio of LDH increase in the supernatant divided by the LDH increase in the total cell suspension (sum of the LDH measured in cells and supernatant). Toxicity was determined after 7 days of differentiation with retinoic acid in M17_3TAU(P301 L) cells compared to M17.pcDNA3 cells.
The M17_3TAU(P301L) cell line makes it possible to assess the ability of novel compounds to inhibit TAU-induced cytotoxicity. […] Compounds were tested for their ability to hamper TAU-induced toxicity at different concentrations, ranging from low non-effective concentrations to high potent concentrations. Afterwards, the dose-dependent inhibition curve was used to calculate their EC50 (Table 3B).
For the compound `O=S(=O)(Cc1cccc(Cl)c1)N1CC2(CN(Cc3ccc(F)cc3)C2)C1` [Cpd B218], the EC50 worked out at 16.8 nM.

As for `Cc1csc(CN2CC3(C2)CN(C(=O)NCc2ccc(F)cc2)C3)c1` [Cpd B192], the EC50 was determined as 141 nM.

In turn, `Cc1cccnc1CN1CC2(C1)CN(C(=O)NCc1ccc(F)cc1)C2` [Cpd B443] yielded an EC50 of 171 nM. In the case of `O=C(Cc1ccc(F)cc1)N1CC2(CN(CCCc3ccccc3)C2)C1` [Cpd B001, 2-(4-fluorophenyl)-1-(6-(3-phenylpropyl)-2,6-diazaspiro[3.3]heptan-2-yl)ethanone], the midpoint of the response, the EC50, lay at 10.7 nM. Compound `CCn1cc(CN2CC3(C2)CN(C(=O)NCc2ccc(F)cc2)C3)cn1` [Cpd B410] gave a half-maximal effective concentration (EC50) of 3320 nM. As to `O=C(Cc1ccc(F)c(F)c1)N1CC2(CN(Cc3ccccc3)C2)C1` [Cpd B007, 1-(6-benzyl-2,6-diazaspiro[3.3]heptan-2-yl)-2-(3,4-difluorophenyl)ethanone], it took 4.16 nM to reach a half-maximal effect (EC50). This EC50 is about 800-fold lower than that of the compound before. `Cc1nc(CN2CC3(C2)CN(C(=O)OCC24CC(F)(C2)C4)C3)cs1` [Cpd B136] gave an EC50 of 671 nM. As for `Cc1ccccc1CC(=O)N1CC2(CN(Cc3ccc(F)cc3)C2)C1` [Cpd B439], it took 295 nM to reach a half-maximal effect (EC50). The figure for `O=C(OCc1ccc(Cl)cc1)N1CC2(CN(Cc3ccc(F)cc3)C2)C1` [Cpd B130] is 13.3 nM. On to `O=C(Cc1ccc(OC(F)(F)F)cc1)N1CC2(CN(Cc3ccc(F)cc3)C2)C1` [Cpd B090], for which the EC50 came out at 9.15 nM. In the case of `COc1ccccc1CCNC1CC2(C1)CC(Nc1nc(Cc3ccc(Cl)cc3)ns1)C2` (stereo not shown) [Cpd B328, N-(3-(4-chlorobenzyl)-1,2,4-thiadiazol-5-yl)-N′-(2-methoxyphenethyl) spiro[3.3]heptane-2,6-diamine], the EC50 came to 2 nM.

In turn, `O=C(NCc1ccc(F)cc1)N1CC2(CN(Cc3ccc(F)cc3)C2)C1` [Cpd B188] came in with an EC50 of 53 nM. This EC50 is about 26-fold higher than that of the compound before.

For the compound `Cc1nc(CN2CC3(C2)CN(C(=O)Cc2ccc(F)cc2)C3)cs1` [Cpd B019, 2-(4-Fluoro-phenyl)-1-[6-(2-methyl-thiazol-4-ylmethyl)-2,6-diaza-spiro[3.3]hept-2-yl]-ethanone], it took 71.8 nM to reach a half-maximal effect (EC50). This EC50 and that of the compound before are within 1.5-fold of each other. With `Cc1cccc(CCN2CC3(C2)CN(C(=O)Cc2ccc(Cl)cc2)C3)n1` [Cpd B051, 2-(4-chlorophenyl)-1-(6-(2-(6-methylpyridin-2-yl)ethyl)-2,6-diazaspiro[3.3]heptan-2-yl)ethanone], a half-maximal effect (EC50) was put at 30.7 nM.

Compound `Cc1nc(CN2CC3(C2)CN(C(=O)Cc2ccc(F)c(C(F)(F)F)c2)C3)cs1` [Cpd B101] had an EC50 of 76.6 nM. As for `COc1cccc(CN2CC3(C2)CN(C(=O)Cc2ccccn2)C3)c1` [Cpd B419], the EC50 was determined as 1260 nM. Turning to `O=C(NC1CCC(F)(F)CC1)N1CC2(CN(Cc3ccc(F)cn3)C2)C1` [Cpd B205], the midpoint of the response, the EC50, lay at 263 nM. Against the preceding compound, the EC50 is about 4.8-fold lower. In turn, `Clc1ccc(CNC2CC3(C2)CC(Nc2nc(Cc4ccc(Cl)cc4)ns2)C3)cc1` (stereo not shown) [Cpd B303, N-(4-chlorobenzyl)-N′-(3-(4-chlorobenzyl)-1,2,4-thiadiazol-5-yl) spiro[3.3]heptane-2,6-diamine] showed an EC50 of 11.8 nM. `O=C(Cc1ccc(F)cc1)N1CC2(CN(CCc3cccc(C(F)(F)F)c3)C2)C1` [Cpd B023, 2-(4-Fluoro-phenyl)-1-{6-[2-(3-trifluoromethyl-phenyl)-ethyl]-2,6-diaza-spiro[3.3]hept-2-yl}-ethanone] had an EC50 of 18.6 nM. With `O=C(CCC1CCCCC1)N1CC2(CN(Cc3ccc(F)cc3)C2)C1` [Cpd B089], the EC50 was determined as 2.93 nM. Compared with the last compound, the EC50 is about 6.3-fold lower. `Cn1cc(CN2CC3(C2)CN(C(=O)NCc2ccc(F)cc2)C3)cn1` [Cpd B405] showed an EC50 of 4820 nM. Consider `COc1cccc(CN2CC3(C2)CN(C(=O)CC2CCCC2)C3)c1` [Cpd B455], for which the EC50 came to 74.5 nM. This EC50 is about 65-fold lower than that of the compound before. As for `CCc1cc(CC(=O)N2CC3(CN(Cc4ccc(F)cc4)C3)C2)ccn1` [Cpd B415], a half-maximal effect (EC50) was put at 2410 nM. Compared with the last compound, the EC50 is about 32-fold higher.

`COc1cccc(CN2CC3(C2)CN(C(=O)NCc2cccc(C(F)(F)F)c2)C3)c1` [Cpd B173] gave an EC50 of 30.3 nM. Regarding `Cc1nn(C)c(CN2CC3(C2)CN(C(=O)CC2CCC(F)(F)CC2)C3)c1Cl` [Cpd B122], the EC50 is 3720 nM.

In turn, `O=C(Cc1ccc(F)cc1)N1CC2(CN(CCc3ccccc3)C2)C1` [Cpd B030, 2-(4-Fluoro-phenyl)-1-(6-phenethyl-2,6-diaza-spiro[3.3]hept-2-yl)-ethanone] gave an EC50 of 37.7 nM.

Turning to `O=C(CC1CCC(F)(F)CC1)N1CC2(CN(Cc3ncccc3Cl)C2)C1` [Cpd B114], the response was half-maximal at 13.6 nM (EC50).

Consider `O=C(NCC1CCC(F)(F)CC1)N1CC2(CN(Cc3ncccc3Cl)C2)C1` [Cpd B196], for which the EC50 was 12.5 nM. The EC50 values of the last two compounds are within 1.5-fold of each other. Compound `FC(F)(F)c1ccc(CNC2CC3(C2)CC(Nc2nc(Cc4ccc(Cl)cc4)ns2)C3)cc1` (stereo not shown) [Cpd B304, N-(3-(4-chlorobenzyl)-1,2,4-thiadiazol-5-yl)-N′-(4-(trifluoromethyl)benzyl) spiro[3.3]heptane-2,6-diamine] came in with an EC50 of 31.5 nM. `CC(C)(C(=O)c1ccccc1)N1CC2(CN(C(=O)Cc3ccc(Cl)cc3)C2)C1` [Cpd B050, 2-(6-(2-(4-chlorophenyl)acetyl)-2,6-diazaspiro[3.3]heptan-2-yl)-2-methyl-1-phenylpropan-1-one] came in with an EC50 of 72.8 nM. Compound `Cc1nc(CN2CC3(C2)CN(C(=O)NCc2ccc(F)cc2)C3)cs1` [Cpd B418] displayed an EC50 of 1330 nM. For the compound `O=C(CC1CCC(F)(F)CC1)N1CC2(CN(Cc3ccccc3OC(F)F)C2)C1` [Cpd B111], the EC50 was 3.55 nM.

Regarding `Cc1[nH]cnc1CN1CC2(C1)CN(C(=O)CC1CCC(F)(F)CC1)C2` [Cpd B124], the EC50 was determined as 54.4 nM. `Cc1ccc(CNC2CC3(C2)CC(Nc2nc(Cc4ccc(Cl)cc4)ns2)C3)c(C)c1` (stereo not shown) [Cpd B319, N-(3-(4-chlorobenzyl)-1,2,4-thiadiazol-5-yl)-N′-(2,4-dimethylbenzyl) spiro[3.3]heptane-2,6-diamine] returned an EC50 of 2.1 nM. The figure for `CC(c1cccc(C(F)(F)F)c1)N1CC2(CN(C(=O)Cc3ccc(Cl)cc3)C2)C1` (stereo not shown) [Cpd B037, 2-(4-chlorophenyl)-1-(6-(1-(3-(trifluoromethyl)phenyl)ethyl)-2,6-diazaspiro[3.3]heptan-2-yl)ethanone] is 5.41 nM; for `Cc1cccnc1CN1CC2(C1)CN(C(=O)C(F)(F)c1ccc(F)cc1)C2` [Cpd B087] it is 1020 nM. The figure for `Cc1cccnc1CN1CC2(C1)CN(S(=O)(=O)CCc1ccccc1)C2` [Cpd B211, 2-((3-methylpyridin-2-yl)methyl)-6-((phenethyl)sulfonyl)-2,6-diazaspiro[3.3]heptane] is 94.8 nM; for `Cn1cc(CN2CC3(C2)CN(C(=O)CC2CCC(F)(F)CC2)C3)cn1` [Cpd B119] it is 46 nM. `COc1cc(OC)nc(CN2CC3(C2)CN(C(=O)Cc2ccc(Cl)cc2)C3)n1` [Cpd B036, 2-(4-chlorophenyl)-1-(6-((4,6-dimethoxypyrimidin-2-yl)methyl)-2,6-diazaspiro[3.3]heptan-2-yl)ethanone] returned an EC50 of 17.6 nM. `COc1cccc(CN2CC3(C2)CN(C(=O)NC2CCCC2)C3)c1` [Cpd B183]: the EC50 was less than 0.19 nM. Compound `O=C(Cc1ccc(Cl)cc1)N1CC2(CN(CCc3cccc(C(F)(F)F)c3)C2)C1` [Cpd B044, 2-(4-chlorophenyl)-1-(6-(3-(trifluoromethyl)phenethyl)-2,6-diazaspiro[3.3]heptan-2-yl)ethanone] gave an EC50 of 16.1 nM. The figure for `O=C(CC1CCC(F)(F)CC1)N1CC2(CN(Cc3ncccc3F)C2)C1` [Cpd B464] is 40.1 nM; for `Cc1ccccc1CN1CC2(C1)CN(C(=O)Cc1ccc(Cl)cc1)C2` [Cpd B006, 2-(4-chlorophenyl)-1-(6-(2-methylbenzyl)-2,6-diazaspiro[3.3]heptan-2-yl)ethanone] it is 2.91 nM. Take `O=C(NC1CCCCC1)N1CC2(CN(Cc3ccc(F)cc3)C2)C1` [Cpd B454]: the EC50 turned out to be 76.6 nM.

`O=C(OCC1CCC(F)(F)CC1)N1CC2(CN(Cc3ccc(F)cc3)C2)C1` [Cpd B132] registered an EC50 of 3.16 nM. This EC50 is about 24-fold lower than that of the compound before. Under `O=C(Nc1ccc(Cl)cc1)N1CC2(CN(Cc3ccc(F)cc3)C2)C1` [Cpd B187] stands 9.15 nM.

The compound `COc1cccc(CN2CC3(C2)CN(C(=O)COC2CCCCC2)C3)c1` [Cpd B070] yielded an EC50 of 54 nM. `O=C(CC1CCC(F)(F)CC1)N1CC2(CN(Cc3ccc(Cl)cc3F)C2)C1` [Cpd B106] returned an EC50 of less than 0.19 nM. Compound `O=C(NC1CC(F)(F)C1)N1CC2(CN(Cc3ccc(F)cc3)C2)C1` [Cpd B168] yielded an EC50 of 780 nM.
